Results: patent US11053204B2, “Pyrimidinyloxy benzene derivatives as herbicides” (FMC Corporation, priority 2015, dated 2021)

How the values were obtained:
Type in all cases: in vivo
kochia (Kochia scoparia) [1] = test: Test A postemergence, visual injury rating
Procedure, shortened: (§1)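 Scoring: eye-based comparison with untreated controls, 0 for no effect through 100 for complete control, at about day 10. Treatments: directed soil spray preemergence; foliar spray postemergence on 2–10 cm plants at the one- to two-leaf stage. Medium: loam soil with sand.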

[2] = system: giant foxtail (Setaria faberii); test: Test A postemergence, visual injury rating
Procedure, shortened: as §1

[3] = system: ragweed (common ragweed, Ambrosia elatior); test: Test A postemergence, visual injury rating
Procedure, shortened: as §1

[4] = system: wheat (Triticum aestivum); test: Test A postemergence, visual injury rating
Procedure, shortened: as §1

[5] = system: pigweed (Amaranthus retroflexus); test: Test A postemergence, visual injury rating
Procedure, shortened: as §1

[6] = system: barnyardgrass (Echinochloa crus-galli); test: Test A postemergence, visual injury rating; conditions: 0 is no effect, 100 is complete control; for Barnyardgrass plant response rating: 0 to 100 scale, approximately 10 days
Procedure, shortened: as §1

corn (Zea mays) = test: Test A postemergence, visual injury rating
Procedure, shortened: as §1

[7] = system: galium (catchweed bedstraw, Galium aparine); test: Test A postemergence, visual injury rating
Procedure, shortened: as §1

[8] = system: Italian ryegrass (Lolium multiflorum); test: Test A postemergence, visual injury rating
Procedure, shortened: as §1

[9] = system: blackgrass (Alopecurus myosuroides); test: Test A postemergence, visual injury rating
Procedure, shortened: as §1

kochia (Kochia scoparia) [10] = test: Test A preemergence, visual injury rating
Procedure, shortened: as §1

[11] = system: giant foxtail (Setaria faberii); test: Test A preemergence, visual injury rating
Procedure, shortened: as §1

[12] = system: ragweed (common ragweed, Ambrosia elatior); test: Test A preemergence, visual injury rating
Procedure, shortened: as §1

[13] = system: pigweed (Amaranthus retroflexus); test: Test A preemergence, visual injury rating
Procedure, shortened: as §1

[14] = system: barnyardgrass (Echinochloa crus-galli); test: Test A preemergence, visual injury rating
Procedure, shortened: as §1

[15] = system: Italian ryegrass (Lolium multiflorum); test: Test A preemergence, visual injury rating
Procedure, shortened: as §1

[16] = system: barnyardgrass (Echinochloa crus-galli); test: Test B flooded paddy test, plant response rating; conditions: 250 g ai/ha; Flood; scale of 0 to 100 where 0 is no effect and 100 is complete control; 13 to 15 days
Procedure, shortened: (§2)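 Flooded 3 cm over soil; compound into paddy water; depth kept constant. Greenhouse 13–15 d.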

[17] = system: ducksalad (Heteranthera limosa); test: Test B flooded paddy test, plant response rating; conditions: 250 g ai/ha; Flood; scale of 0 to 100 where 0 is no effect and 100 is complete control; 13 to 15 days
Procedure, shortened: as §2

rice (Oryza sativa) = test: Test B flooded paddy test, plant response rating; conditions: 250 g ai/ha; Flood; scale of 0 to 100 where 0 is no effect and 100 is complete control; 13 to 15 days
Procedure, shortened: as §2

[18] = system: sedge, umbrella (small-flower umbrella sedge, Cyperus difformis); test: Test B flooded paddy test, plant response rating; conditions: 250 g ai/ha; Flood; scale of 0 to 100 where 0 is no effect and 100 is complete control; 13 to 15 days
Procedure, shortened: as §2

[19] = 31 g ai/ha, 0 to 100 scale, 0 is no effect, 100 is complete control, approximately 10 days
[20] = 125 g ai/ha, 0 to 100 scale, 0 is no effect, 100 is complete control, approximately 10 days
[21] = 125 g ai/ha, 0 is no effect, 100 is complete control
[22] = 31 g ai/ha, 0 to 100 scale, 0 no effect, 100 complete control
[23] = 125 g ai/ha, 0 to 100 scale (0 no effect, 100 complete control)
[24] = 31 g ai/ha, 0 to 100 scale (0 no effect, 100 complete control)

| SMILES | Kochia plant response rating (kochia (Kochia scoparia) [1]; [19]) | Kochia plant response rating (kochia (Kochia scoparia) [1]; [20]) | Foxtail, Giant plant response rating [2, 19] | Ragweed plant response rating [3, 19] | Ragweed plant response rating [3, 20] | Wheat plant response rating [4, 19] | Wheat plant response rating [4, 20] | Pigweed plant response rating [5, 20] | Barnyardgrass plant response rating ([6]; 31 g ai/ha) | Ryegrass, Italian plant response rating [8, 20] | Plant response rating, Kochia (kochia (Kochia scoparia) [10]; [22]) | Plant response rating, Foxtail, Giant [11, 22] | Plant response rating, Ragweed [12, 22] | Plant response rating, Pigweed [13, 22] | Plant response rating, Barnyardgrass [14, 22] | Plant response rating, Ryegrass, Italian [15, 22] | Plant response rating, Barnyardgrass [16] | Plant response rating, Ducksalad [17] | Plant response rating, Rice (rice (Oryza sativa)) | Plant response rating, Sedge, Umbrella [18] | also measured |
| --- | --- | --- | --- | --- | --- | --- | --- | --- | --- | --- | --- | --- | --- | --- | --- | --- | --- | --- | --- | --- | --- |
| O=C(SCCC(F)(F)F)c1c(Br)cccc1Oc1ncc(Cl)cn1 [Compound 71] | 10 | 50 | 10 | 0 | 20 | 0 | 0 | 70 | 0 | 20 | 0 | 40 | 0 | 0 | 0 | 0 | 0 | 90 | 0 | 95 | Foxtail, Giant plant response rating (0 to 100 scale) [2, 21]: 40; Pigweed plant response rating [5, 19]: 30; Barnyardgrass plant response rating (0 to 100 scale) ([6]; 125 g ai/ha): 40; Corn plant response rating (corn (Zea mays); [19]): 10; Corn plant response rating (0 to 100 scale) (corn (Zea mays); [21]): 20; Galium plant response rating [7, 19]: 30; Galium plant response rating (0 to 100 scale) [7, 21]: 90; Ryegrass, Italian plant response rating [8, 19]: 0; Blackgrass plant response rating [9, 19]: 10; Blackgrass plant response rating (0 to 100 scale) [9, 21]: 30; Kochia plant response rating (kochia (Kochia scoparia) [10]; [23]): 0; Foxtail, Giant plant response rating [11, 23]: 100; Ragweed plant response rating [12, 23]: 0; Pigweed plant response rating [13, 23]: 40; Barnyardgrass plant response rating [14, 23]: 10; Ryegrass, Italian plant response rating [15, 23]: 0 |
| Cc1cccc(Oc2ncc(Cl)cn2)c1C(=O)OCCC(F)(F)F [Compound 99] | 20 | 40 | 50 | 10 | 30 | 0 | 30 | 40 | 30 | 50 | 40 | 90 | 0 | 50 | 70 | 0 | 60 | 100 | 40 | 90 | Foxtail, Giant plant response rating [2, 20]: 90; Pigweed plant response rating [5, 19]: 10; Barnyardgrass plant response rating ([6]; 125 g ai/ha): 80; Corn plant response rating (corn (Zea mays); [19]): 0; Corn plant response rating (corn (Zea mays); [20]): 50; Galium plant response rating [7, 19]: 20; Galium plant response rating [7, 20]: 70; Ryegrass, Italian plant response rating [8, 19]: 0; Blackgrass plant response rating [9, 19]: 30; Blackgrass plant response rating [9, 20]: 80; Plant response rating, Kochia (kochia (Kochia scoparia) [10]; [23]): 80; Plant response rating, Foxtail, Giant [11, 23]: 100; Plant response rating, Ragweed [12, 23]: 10; Plant response rating, Pigweed [13, 23]: 90; Barnyardgrass plant response rating [14, 23]: 100; Plant response rating, Ryegrass, Italian [15, 23]: 30 |
| N#CCc1ccccc1Oc1ncc(Cl)cn1 [Compound 140] |  | 30 |  |  | 0 |  | 0 | 20 | 0 | 0 | 0 | 0 | 0 | 0 | 0 | 10 | 0 | 0 | 0 | 0 | Kochia plant response rating (kochia (Kochia scoparia) [1]; [24]): 0; Foxtail, Giant plant response rating [2, 24]: 0; Foxtail, Giant plant response rating [2, 20]: 0; Ragweed plant response rating [3, 24]: 0; Wheat plant response rating [4, 24]: 0; Pigweed plant response rating [5, 24]: 0; Barnyardgrass plant response rating ([6]; 125 g ai/ha): 0; Corn plant response rating (corn (Zea mays); [24]): 0; Corn plant response rating (corn (Zea mays); [20]): 0; Galium plant response rating [7, 24]: 0; Galium plant response rating [7, 20]: 0; Ryegrass, Italian plant response rating [8, 24]: 0; Blackgrass plant response rating [9, 24]: 0; Blackgrass plant response rating [9, 20]: 0; Plant response rating, Kochia (kochia (Kochia scoparia) [10]; [23]): 40; Plant response rating, Foxtail, Giant [11, 23]: 0; Plant response rating, Ragweed [12, 23]: 0; Plant response rating, Pigweed [13, 23]: 10; Plant response rating, Barnyardgrass [14, 23]: 0; Plant response rating, Ryegrass, Italian [15, 23]: 10 |
